Source: patent US20120208852A1, “Heterocyclic-substituted 2-acetamido-5-aryl-1,2,4-triazolones and use thereof” (BAYER PHARMA AKTIENGESELLSCHAFT, priority 2009, published 2012)

Assays:
human V2 receptor = target: T1, human V2 receptor (Homo sapiens, UniProt P30518); assay: Cellular in vitro assay for vasopressin receptor activity (aequorin luminescence), hV2; assay type: cell-based; conditions: CHO cell line transfected with the human V2 receptor and Gα16, agonist [Arg8]-vasopressin
T1 construct: Galpha16 (possible fusion partner; the text says either independent or a fusion gene); expressed in transfected cells; host or cells: CHO K1 (constitutively expressing modified aequorin, co-transfected with Gα16)
Text: (§1) B-1. Cellular In Vitro Assay for Determining the Vasopressin Receptor Activity
(§2) The identification of agonists and antagonists of the V1a and V2 vasopressin receptors from humans and rats and also the quantification of the activity of the substances described here took place using recombinant cell lines. These cells derive originally from a hamster ovary epithelial cell (Chinese Hamster Ovary, CHO K1, ATCC: American Type Culture Collection, Manassas, Va. 20108, USA). The test cell lines constitutively express a modified form of the calcium-sensitive photoprotein aequorin, which, after reconstitution with the cofactor coelenterazine, emits light when there are increases in the free calcium concentration (Rizzuto R., Simpson A. W., Brini M., Pozzan T.; Nature 358 (1992) 325-327). In addition, the cells are stably transfected with the human or rat V1a or V2 receptors. In the case of the Gs-coupling V2 receptors, the cells are stably transfected with a further gene, which codes for the promiscuous Gα16 protein (Amatruda T. T., Steele D. A., Slepak V. Z., Simon M. I., Proc. Nat. Acad. Sci. USA 88 (1991), 5587-5591), either independently or as a fusion gene. The resulting vasopressin receptor test cells react to stimulation of the recombinantly expressed vasopressin receptors by intracellular release of calcium ions, which can be quantified by the resulting aequorin luminescence using a suitable luminometer (Milligan G., Marshall F., Rees S., Trends in Pharmaco. Sci. 17 (1996) 235-237).
(§3) Test procedure: On the day before the assay, the cells are plated out in culture medium (DMEM, 10% FCS, 2 mM glutamine, 10 mM HEPES) in 384-well microtiter plates and kept in a cell incubator (96% humidity, 5% v/v carbon dioxide, 37° C.). On the day of the assay, the culture medium is replaced by a Tyrode solution (140 mM sodium chloride, 5 mM potassium chloride, 1 mM magnesium chloride, 2 mM calcium chloride, 20 mM glucose, 20 mM HEPES), which additionally contains the cofactor coelenterazine (50 μM), and the microtiter plate is then incubated for a further 3-4 hours. The test substances in various concentrations are placed for 10 to 20 minutes in the wells of the microtiter plate before the agonist [Arg8]-vasopressin is added, and the resulting light signal is measured immediately in the luminometer. The IC50 values are calculated using the GraphPad PRISM computer program (Version 3.02).
(§4) The table below lists representative IC50 values for the compounds of the invention on the cell line transfected with the human V1a or V2 receptor: […]

human V1a receptor = target: T2, human V1a receptor (Homo sapiens, UniProt P37288); assay: Cellular in vitro assay for vasopressin receptor activity (aequorin luminescence), hV1a; assay type: cell-based; conditions: CHO cell line transfected with the human V1a receptor, agonist [Arg8]-vasopressin
T2 construct: expressed in transfected cells; host or cells: CHO K1 (constitutively expressing modified aequorin)
Text: as §1, §2, §3, §4

T1 sequence (P30518 whole entry, the tested form may be a part): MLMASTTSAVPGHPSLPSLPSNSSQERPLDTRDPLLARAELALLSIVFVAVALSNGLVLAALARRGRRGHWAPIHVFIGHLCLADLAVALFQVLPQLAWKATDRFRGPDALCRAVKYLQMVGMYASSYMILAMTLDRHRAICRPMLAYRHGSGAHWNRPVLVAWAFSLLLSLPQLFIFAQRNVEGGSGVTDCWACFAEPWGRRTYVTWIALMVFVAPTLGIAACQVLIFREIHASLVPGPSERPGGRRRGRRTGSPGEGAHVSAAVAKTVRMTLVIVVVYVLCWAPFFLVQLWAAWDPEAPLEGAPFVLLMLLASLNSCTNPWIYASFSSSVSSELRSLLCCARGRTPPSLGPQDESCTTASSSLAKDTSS
T2 sequence (P37288 whole entry): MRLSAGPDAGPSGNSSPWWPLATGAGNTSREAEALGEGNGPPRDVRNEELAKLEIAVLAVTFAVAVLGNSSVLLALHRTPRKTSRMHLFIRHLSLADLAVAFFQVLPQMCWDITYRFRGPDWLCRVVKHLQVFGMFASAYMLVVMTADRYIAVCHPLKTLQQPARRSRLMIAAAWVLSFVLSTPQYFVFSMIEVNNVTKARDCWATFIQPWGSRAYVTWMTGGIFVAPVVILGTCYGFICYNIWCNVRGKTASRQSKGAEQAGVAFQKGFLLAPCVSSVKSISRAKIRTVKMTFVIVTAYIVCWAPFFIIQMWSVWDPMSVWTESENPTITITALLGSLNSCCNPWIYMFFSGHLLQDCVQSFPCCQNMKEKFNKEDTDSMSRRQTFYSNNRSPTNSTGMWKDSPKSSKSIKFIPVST

Compound	IC50 (human V2 receptor)	IC50 (human V1a receptor)
COc1cccc(C(NC(=O)Cn2nc(-c3ccc(Cl)cc3)n(C[C@H](O)C(F)(F)F)c2=O)c2cccc(C(F)(F)F)c2)n1 (single isomer, unassigned) [Example 18]	91 nM	32 nM
COc1cccc(C(NC(=O)Cn2nc(-c3ccc(Cl)cc3)n(C[C@H](O)C(F)(F)F)c2=O)c2cccc(C(F)(F)F)c2)n1 (single isomer, unassigned) [Example 19]	7.1 nM	4.6 nM
Cc1noc([C@](C)(NC(=O)Cn2nc(-c3ccc(Cl)cc3)n(C[C@H](O)C(F)(F)F)c2=O)c2cccc(C(F)(F)F)c2)n1 [Example 3, 2-{3-(4-Chlorophenyl)-5-oxo-4-[(2S)-3,3,3-trifluoro-2-hydroxypropyl]-4,5-dihydro-1H-1,2,4-triazol-1-yl}-N-{(1R)-1-(3-methyl-1,2,4-oxadiazol-5-yl)-1-[3-(trifluoro-methyl)phenyl]ethyl}acetamide]	3.2 nM	6.5 nM
C[C@@](NC(=O)Cn1nc(-c2ccc(Cl)cc2)n(C[C@H](O)C(F)(F)F)c1=O)(c1cccc(C(F)(F)F)c1)c1nnn[nH]1 [Example 4, 2-{3-(4-Chlorophenyl)-5-oxo-4-[(2S)-3,3,3-trifluoro-2-hydroxypropyl]-4,5-dihydro-1H-1,2,4-triazol-1-yl}-N-{(1R)-1-(1H-tetrazol-5-yl)-1-[3-(trifluoromethyl)phenyl]ethyl}acetamide]	3.3 nM	8.3 nM
